Laboratory results: ChEMBL document CHEMBL3734671, “Design and synthesis of an in vivo-efficacious PIM3 kinase inhibitor as a candidate anti-pancreatic cancer agent” (Bioorg Med Chem Lett, 2015)

How the values were obtained:
CYP2D6 = CYP2D6 (Homo sapiens, UniProt P10635); test: Inhibition of CYP2D6 (unknown origin) at 10 uM; type: ADME
[1] = biological target: Mitogen-activated protein kinase 14 (Homo sapiens) (UniProt Q16539); test: Inhibition of p38alpha (unknown origin) at 200 nM by electrophoretic mobility shift assay
[2] = biological target: Insulin-like growth factor 1 receptor (Homo sapiens) (UniProt P08069); test: Inhibition of IGF1R (unknown origin) at 200 nM by electrophoretic mobility shift assay
[3] = biological target: Hepatocyte growth factor receptor (Homo sapiens) (UniProt P08581); test: Inhibition of MET (unknown origin) at 200 nM by electrophoretic mobility shift assay
[4] = biological target: Mitogen-activated protein kinase 9 (Homo sapiens) (UniProt P45984); test: Inhibition of JNK2 (unknown origin) at 200 nM by electrophoretic mobility shift assay
[5] = biological target: T1, Death-associated protein kinase 1 (Homo sapiens, UniProt P53355); test: Inhibition of DAPK1 (unknown origin) at 200 nM by electrophoretic mobility shift assay
[6] = biological target: Dual specificity mitogen-activated protein kinase kinase 1 (Homo sapiens) (UniProt Q02750); test: Inhibition of MAP2K1 (unknown origin) at 200 nM by ELISA
[7] = biological target: Serine/threonine-protein kinase D2 (Homo sapiens) (UniProt Q9BZL6); test: Inhibition of PKD2 (unknown origin) at 200 nM by electrophoretic mobility shift assay
[8] = Growth inhibition of human PANC1 cells after 72 hrs by CCK-8 assay; type: functional, cell-based; settings: PANC-1, 72 h
[9] = biological target: MAP kinase-activated protein kinase 2 (Homo sapiens) (UniProt P49137); test: Inhibition of MAPKAPK2 (unknown origin) at 200 nM by electrophoretic mobility shift assay
[10] = biological target: Proto-oncogene tyrosine-protein kinase Src (Homo sapiens) (UniProt P12931); test: Inhibition of SRC (unknown origin) at 200 nM by electrophoretic mobility shift assay
[11] = biological target: Serine/threonine-protein kinase Chk1 (Homo sapiens) (UniProt O14757); test: Inhibition of CHK1 (unknown origin) at 200 nM by electrophoretic mobility shift assay
[12] = biological target: Inhibitor of nuclear factor kappa-B kinase subunit beta (Homo sapiens) (UniProt O14920); test: Inhibition of IKKbeta (unknown origin) at 200 nM by electrophoretic mobility shift assay
CYP3A4 = CYP3A4 (Homo sapiens, UniProt P08684); test: Inhibition of CYP3A4 (unknown origin) at 10 uM; type: ADME
hERG (KCNH2) = hERG (KCNH2) (Homo sapiens, UniProt Q12809); test: Inhibition of human ERG at 10 uM by patch-clamp method
[13] = biological target: Serine/threonine-protein kinase pim-3 (Homo sapiens, UniProt Q86V86); test: Inhibition of PIM3 (unknown origin) using FL-Peptide 1 (5-FAM-AKRRRLSSLRA-COOH) substrate incubated for 2 hrs by electrophoretic mobility shift assay
[14] = biological target: CDK2/Cyclin A2 (Homo sapiens) (UniProt P24941+P20248); test: Inhibition of CDK2/CycA2 (unknown origin) at 200 nM by electrophoretic mobility shift assay; type: protein-complex assay
[15] = biological target: Rho-associated protein kinase 1 (Homo sapiens) (UniProt Q13464); test: Inhibition of ROCK1 (unknown origin) at 200 nM by electrophoretic mobility shift assay
[16] = biological target: Tyrosine-protein kinase receptor TYRO3 (Homo sapiens) (UniProt Q06418); test: Inhibition of TYRO3 (unknown origin) at 200 nM by electrophoretic mobility shift assay
[17] = biological target: 3-phosphoinositide-dependent protein kinase 1 (Homo sapiens) (UniProt O15530); test: Inhibition of PDK1 (unknown origin) at 200 nM by electrophoretic mobility shift assay
[18] = biological target: Protein kinase C alpha type (Homo sapiens) (UniProt P17252); test: Inhibition of PKCalpha (unknown origin) at 200 nM by electrophoretic mobility shift assay
[19] = biological target: Serine/threonine-protein kinase Nek2 (Homo sapiens) (UniProt P51955); test: Inhibition of NEK2 (unknown origin) at 200 nM by electrophoretic mobility shift assay
[20] = biological target: Platelet-derived growth factor receptor alpha (Homo sapiens) (UniProt P16234); test: Inhibition of PDGFRalpha (unknown origin) at 200 nM by electrophoretic mobility shift assay
[21] = biological target: Casein kinase I isoform epsilon (Homo sapiens) (UniProt P49674); test: Inhibition of CK1 epsilon (unknown origin) at 200 nM by electrophoretic mobility shift assay
[22] = biological target: Ephrin type-A receptor 2 (Homo sapiens) (UniProt P29317); test: Inhibition of EPHA2 (unknown origin) at 200 nM by electrophoretic mobility shift assay
[23] = biological target: RAF proto-oncogene serine/threonine-protein kinase (Homo sapiens) (UniProt P04049); test: Inhibition of RAF1 (unknown origin) at 200 nM by ELISA
[24] = biological target: Dual specificity tyrosine-phosphorylation-regulated kinase 1B (Homo sapiens) (UniProt Q9Y463); test: Inhibition of DYRK1B (unknown origin) at 200 nM by electrophoretic mobility shift assay
[25] = biological target: Ephrin type-B receptor 4 (Homo sapiens) (UniProt P54760); test: Inhibition of EPHB4 (unknown origin) at 200 nM by electrophoretic mobility shift assay
Mus musculus = test: Toxicity in BALB/c nu/nu mouse xenografted with human PCI66 cells assessed as affect on body weight at 30 mg/kg, ip qd dosed for 5 days followed by 2 days cessation measured 33 days after tumor inoculation; type: organism-based; settings: in vivo, 792 h
[26] = Growth inhibition of human MIAPaCa2 cells after 72 hrs by CCK-8 assay; type: functional, cell-based; settings: MIA PaCa-2, 72 h
[27] = Growth inhibition of human L3.6PL cells after 72 hrs by CCK-8 assay; type: functional
[28] = biological target: Glycogen synthase kinase-3 beta (Homo sapiens, UniProt P49841); test: Inhibition of GSK3beta (unknown origin) by electrophoretic mobility shift assay
[29] = biological target: Serine/threonine-protein kinase pim-1 (Homo sapiens, UniProt P11309); test: Inhibition of PIM1 (unknown origin) by electrophoretic mobility shift assay
[30] = Antitumor activity against human PCI66 cells xenografted in BALB/c nu/nu mouse assessed as reduction in tumor volume at 30 mg/kg, ip qd dosed for 5 days followed by 2 days cessation measured 33 days after tumor inoculation relative to control; type: functional
[31] = Growth inhibition of human PCI35 cells after 72 hrs by CCK-8 assay; type: functional, cell-based; settings: PCI35, 72 h
[32] = Growth inhibition of human PCI66 cells after 72 hrs by CCK-8 assay; type: functional, cell-based; settings: PCI66, 72 h
[33] = biological target: T1, Death-associated protein kinase 1; test: Inhibition of DAPK1 (unknown origin) by electrophoretic mobility shift assay

Chain of Platelet-derived growth factor receptor alpha (Homo sapiens) (P16234 whole entry, canonical isoform): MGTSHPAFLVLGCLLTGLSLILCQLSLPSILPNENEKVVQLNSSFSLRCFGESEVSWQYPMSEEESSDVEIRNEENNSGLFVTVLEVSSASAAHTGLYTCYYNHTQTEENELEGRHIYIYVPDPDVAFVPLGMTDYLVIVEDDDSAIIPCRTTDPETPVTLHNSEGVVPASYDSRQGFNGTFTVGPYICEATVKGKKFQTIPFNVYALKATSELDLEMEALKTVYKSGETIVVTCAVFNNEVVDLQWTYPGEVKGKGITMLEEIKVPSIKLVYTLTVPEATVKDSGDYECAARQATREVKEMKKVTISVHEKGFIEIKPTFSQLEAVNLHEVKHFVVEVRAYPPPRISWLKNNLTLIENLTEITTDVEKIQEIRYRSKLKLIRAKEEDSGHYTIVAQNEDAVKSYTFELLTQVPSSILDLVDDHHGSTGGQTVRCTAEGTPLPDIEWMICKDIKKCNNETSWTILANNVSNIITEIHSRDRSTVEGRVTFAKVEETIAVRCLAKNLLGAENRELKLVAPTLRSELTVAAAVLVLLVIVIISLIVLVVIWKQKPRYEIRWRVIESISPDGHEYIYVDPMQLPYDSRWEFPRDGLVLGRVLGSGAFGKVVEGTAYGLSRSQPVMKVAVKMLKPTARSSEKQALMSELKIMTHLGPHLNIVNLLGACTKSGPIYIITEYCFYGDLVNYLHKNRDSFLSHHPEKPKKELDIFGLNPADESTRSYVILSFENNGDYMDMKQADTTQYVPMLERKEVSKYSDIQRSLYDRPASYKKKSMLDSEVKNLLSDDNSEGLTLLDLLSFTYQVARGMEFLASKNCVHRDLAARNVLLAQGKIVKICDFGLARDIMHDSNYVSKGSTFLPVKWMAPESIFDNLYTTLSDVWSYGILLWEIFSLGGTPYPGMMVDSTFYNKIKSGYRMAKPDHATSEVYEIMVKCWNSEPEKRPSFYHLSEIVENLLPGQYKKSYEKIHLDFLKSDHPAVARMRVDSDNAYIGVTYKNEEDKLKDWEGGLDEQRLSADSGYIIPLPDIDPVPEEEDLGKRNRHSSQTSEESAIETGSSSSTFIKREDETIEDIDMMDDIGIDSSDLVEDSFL
Chain of Serine/threonine-protein kinase Chk1 (Homo sapiens) (O14757 whole entry): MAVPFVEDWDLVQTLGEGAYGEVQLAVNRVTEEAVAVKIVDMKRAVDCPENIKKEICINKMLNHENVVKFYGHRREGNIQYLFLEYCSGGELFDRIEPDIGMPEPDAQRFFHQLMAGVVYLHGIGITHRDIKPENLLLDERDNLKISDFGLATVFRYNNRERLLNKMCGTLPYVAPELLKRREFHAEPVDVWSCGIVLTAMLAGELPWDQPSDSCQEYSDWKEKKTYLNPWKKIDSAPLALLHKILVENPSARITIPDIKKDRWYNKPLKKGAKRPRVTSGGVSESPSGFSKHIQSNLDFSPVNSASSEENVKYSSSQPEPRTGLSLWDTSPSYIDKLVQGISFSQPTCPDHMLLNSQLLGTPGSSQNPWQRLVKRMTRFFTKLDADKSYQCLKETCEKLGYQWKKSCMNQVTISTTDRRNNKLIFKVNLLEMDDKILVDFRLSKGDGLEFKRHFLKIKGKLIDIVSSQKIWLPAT
Chain of Mitogen-activated protein kinase 9 (Homo sapiens) (P45984 whole entry, looked up): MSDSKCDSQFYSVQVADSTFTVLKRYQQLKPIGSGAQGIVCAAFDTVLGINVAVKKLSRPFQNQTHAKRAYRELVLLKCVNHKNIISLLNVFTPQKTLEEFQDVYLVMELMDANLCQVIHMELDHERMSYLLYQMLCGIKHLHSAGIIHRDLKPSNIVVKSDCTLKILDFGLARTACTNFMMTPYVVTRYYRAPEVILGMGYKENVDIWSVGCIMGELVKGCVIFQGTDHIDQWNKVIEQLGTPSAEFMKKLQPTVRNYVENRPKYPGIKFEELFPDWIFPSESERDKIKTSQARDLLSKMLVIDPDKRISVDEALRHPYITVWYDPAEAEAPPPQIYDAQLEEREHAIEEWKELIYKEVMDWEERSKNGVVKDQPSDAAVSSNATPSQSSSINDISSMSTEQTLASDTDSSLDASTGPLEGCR
Chain of Inhibitor of nuclear factor kappa-B kinase subunit beta (Homo sapiens) (O14920 whole entry): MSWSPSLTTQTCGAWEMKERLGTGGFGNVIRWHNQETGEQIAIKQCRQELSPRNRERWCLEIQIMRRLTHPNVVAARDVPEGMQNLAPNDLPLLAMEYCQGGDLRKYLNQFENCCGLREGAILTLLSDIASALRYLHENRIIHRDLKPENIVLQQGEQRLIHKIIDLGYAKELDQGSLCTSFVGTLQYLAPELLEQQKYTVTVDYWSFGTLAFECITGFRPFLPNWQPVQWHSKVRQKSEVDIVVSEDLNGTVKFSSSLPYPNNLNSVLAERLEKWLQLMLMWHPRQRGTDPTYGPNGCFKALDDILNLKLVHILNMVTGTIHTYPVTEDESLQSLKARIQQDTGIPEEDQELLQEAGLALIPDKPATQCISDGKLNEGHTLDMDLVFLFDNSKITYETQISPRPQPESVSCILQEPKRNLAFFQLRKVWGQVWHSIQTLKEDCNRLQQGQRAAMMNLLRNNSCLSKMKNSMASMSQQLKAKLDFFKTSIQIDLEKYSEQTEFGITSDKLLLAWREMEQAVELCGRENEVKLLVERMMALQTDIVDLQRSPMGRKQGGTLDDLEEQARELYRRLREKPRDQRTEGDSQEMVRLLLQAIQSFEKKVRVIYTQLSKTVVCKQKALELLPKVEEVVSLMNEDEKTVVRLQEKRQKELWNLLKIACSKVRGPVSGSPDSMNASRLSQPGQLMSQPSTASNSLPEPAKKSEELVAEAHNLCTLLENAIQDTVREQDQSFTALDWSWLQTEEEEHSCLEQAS
Chain of Casein kinase I isoform epsilon (Homo sapiens) (P49674 whole entry, looked up, canonical isoform): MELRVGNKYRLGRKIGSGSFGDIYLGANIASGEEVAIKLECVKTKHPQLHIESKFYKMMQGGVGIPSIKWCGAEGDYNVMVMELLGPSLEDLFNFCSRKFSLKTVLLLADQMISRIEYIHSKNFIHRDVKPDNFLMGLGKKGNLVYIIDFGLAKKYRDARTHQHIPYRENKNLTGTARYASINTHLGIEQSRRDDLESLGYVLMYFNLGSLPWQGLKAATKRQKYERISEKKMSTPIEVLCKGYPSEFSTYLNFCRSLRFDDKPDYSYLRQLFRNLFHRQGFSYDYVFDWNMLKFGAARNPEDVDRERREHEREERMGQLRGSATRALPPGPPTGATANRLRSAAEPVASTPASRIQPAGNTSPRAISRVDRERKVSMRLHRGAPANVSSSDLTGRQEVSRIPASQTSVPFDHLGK
Chain of Tyrosine-protein kinase receptor TYRO3 (Homo sapiens) (Q06418 whole entry): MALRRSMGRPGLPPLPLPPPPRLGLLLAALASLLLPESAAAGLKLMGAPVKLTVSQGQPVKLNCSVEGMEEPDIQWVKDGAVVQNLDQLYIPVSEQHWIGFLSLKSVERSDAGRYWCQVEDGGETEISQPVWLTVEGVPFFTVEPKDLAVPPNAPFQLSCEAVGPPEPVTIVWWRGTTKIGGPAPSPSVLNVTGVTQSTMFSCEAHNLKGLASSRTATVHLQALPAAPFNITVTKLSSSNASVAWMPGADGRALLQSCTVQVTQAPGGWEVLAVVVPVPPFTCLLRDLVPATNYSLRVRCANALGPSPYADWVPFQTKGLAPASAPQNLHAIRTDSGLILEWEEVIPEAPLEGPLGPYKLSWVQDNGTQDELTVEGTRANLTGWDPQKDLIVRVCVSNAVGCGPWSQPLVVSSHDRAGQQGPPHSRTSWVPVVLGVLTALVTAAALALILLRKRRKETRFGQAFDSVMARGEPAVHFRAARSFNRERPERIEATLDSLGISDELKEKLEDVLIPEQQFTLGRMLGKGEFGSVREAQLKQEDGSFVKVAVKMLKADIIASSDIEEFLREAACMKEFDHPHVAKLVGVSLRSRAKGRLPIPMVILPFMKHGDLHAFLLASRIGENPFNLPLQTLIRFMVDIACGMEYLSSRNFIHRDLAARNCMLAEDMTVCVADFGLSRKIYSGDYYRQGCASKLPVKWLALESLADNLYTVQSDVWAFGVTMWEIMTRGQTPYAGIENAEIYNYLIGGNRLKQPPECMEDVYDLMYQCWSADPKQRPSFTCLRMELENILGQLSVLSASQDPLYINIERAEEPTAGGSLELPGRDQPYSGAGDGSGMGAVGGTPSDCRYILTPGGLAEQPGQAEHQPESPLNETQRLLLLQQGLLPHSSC

For `COc1ccc2c(c1CN1CCNCC1)O/C(=C\c1n[nH]c3ncccc13)C2=O`, which inhibition at 10 µM (CYP2D6) is on record?
The inhibition at 10 µM was 23%.

And the inhibition [1]?
The inhibition was -1.8%.

And the inhibition [2]?
The inhibition was -3%.

What about the inhibition [3] of the same compound?
The inhibition was -2.3%.

And the inhibition [4]?
The inhibition was 1.8%.

What about the inhibition [5] of the same compound?
Its inhibition is 80.5%.

And the inhibition [6]?
The inhibition was -7.7%.

And the inhibition [7]?
Its inhibition is 31.6%.

And the IC50 [8]?
Its IC50 is 5.6 µM.

What about the inhibition [9] of the same compound?
Its inhibition is -1.2%.

And the inhibition [10]?
Its inhibition is -0.9%.

And the inhibition [11]?
The inhibition was 9.2%.

What about the inhibition [12] of the same compound?
The inhibition was 4.1%.

What about the inhibition at 10 µM (CYP3A4) of the same compound?
The inhibition at 10 µM was 39%.

And the inhibition at 10 µM (hERG (KCNH2))?
The inhibition at 10 µM was 34%.

What about the IC50 [13] of the same compound?
Its IC50 is 0.0018 µM.

And the inhibition [14]?
The inhibition was 28.2%.

And the inhibition [15]?
The inhibition was 88.9%.

And the inhibition [16]?
Its inhibition is -2.7%.

What about the inhibition [17] of the same compound?
The inhibition was -3.7%.

What about the inhibition [18] of the same compound?
The inhibition was 82.5%.

What about the inhibition [19] of the same compound?
The inhibition was -2.1%.

And the inhibition [20]?
Its inhibition is 5.4%.

And the inhibition [21]?
The inhibition was 3.1%.

What about the inhibition [22] of the same compound?
The inhibition was -2.2%.

What about the inhibition [23] of the same compound?
The inhibition was 11.3%.

And the inhibition [24]?
Its inhibition is 24.8%.

And the inhibition [25]?
The inhibition was -3.1%.

Which results are given for `COc1ccc2c(c1C(C)N1CCNCC1)O/C(=C\c1n[nH]c3ncccc13)C2=O` (centres undefined)?
inhibition at 10 µM (CYP2D6): 14%; Activity (Mus musculus): Non-toxic; inhibition [1]: -1%; inhibition [2]: 1.1%; inhibition [3]: 0.5%; IC50 [26]: 3.5 µM; inhibition [4]: -0.5%; inhibition [5]: 94.9%; IC50 [27]: 6.3 µM; inhibition [6]: -0.4%; inhibition [7]: 13.1%; IC50 [8]: 4 µM; IC50 [28]: 0.0061 µM; inhibition [10]: 0.7%; IC50 [29]: 0.0019 µM; inhibition [11]: 4.1%; inhibition [12]: -2.8%; inhibition at 10 µM (CYP3A4): < 1%; inhibition at 10 µM (hERG (KCNH2)): 34%; IC50 [13]: 0.0025 µM; inhibition [14]: 13.7%; inhibition [15]: 77%; inhibition [16]: 3.5%; inhibition in vivo at 30 mg/kg [30]: 52.5%; inhibition [17]: 0.2%; inhibition [18]: 83.6%; inhibition [19]: -4%; inhibition [20]: 24.2%; IC50 [31]: 5.1 µM; inhibition [21]: -0.5%; IC50 [32]: 3.8 µM; inhibition [22]: -0.3%; inhibition [23]: -9.9%; inhibition [24]: 48%; IC50 [33]: 0.012 µM; inhibition [25]: 9.4%
